Test results as given in US20190038714A1, “ANTI-INFLAMMATORY COMPOSITION COMPRISING CLAVASPIRIN PEPTIDE ANALOGUE AS EFFECTIVE INGREDIENT” (INDUSTRY-ACADEMIC COOPERATION FOUNDATION, CHOSUN UNIVERSITY, priority 2015, published 2019).
Ends that are not written are not given here.

How the values were obtained:
S. aureus MRSA 3511 = conditions: 24 hours at 37° C.
S. aureus MRSA 1630 = conditions: 24 hours at 37° C.
S. aureus MRSA 2-122 = conditions: 24 hours at 37° C.
S. aureus MRSA 0027 = conditions: 24 hours at 37° C.
[1] = system: Escherichia coli, ATCC 25922; assay: Growth minimum inhibitory concentration (MIC), microtiter broth dilution; type: cell-based; conditions: 12 hours at 37° C., pH of 5.5 or 7.4 (not given)
Excerpt: (§1) To compare the antimicrobial activity of the peptide produced by the method of Example 1, the inventors of the present invention measured the growth minimum inhibitory concentration (MIC), which is minimum concentration of the peptide showing no dissociation of bacterial cells.
(§2) Specifically, E. coli (Escherichia coli, ATCC 25922), and P. aeruginosa (Pseudomonas aeruginosa, ATCC 15692), S. typhimurium (Salmonella typhimurium, KTCC 1926), and P. vulgaris (Proteus vulgaris, KCTC 2433 as Gram-negative bacteria, and S. aureus (Staphylococcus aureus, ATCC 25923), L. monocytogenes (Listeria monocytogenes, ATCC 19115), B. subtilis (Bacillus subtilis, KCTC 1918), and S. epidermidis (Staphylococcus epidermidis, KCTC 3096) as Gram-positive bacteria were used after obtaining them from American Type Culture Collection (ATCC) or Korean Cell Line Bank. Each bacterial cell line was cultured in LB medium (1% bacto tryptone, 0.5% bacto yeast extract, and 1% sodium chloride; Sigma, USA) to a mid-log phase at pH of 5.5 or 7.4. After that, the cells were diluted in 1% bacto peptone medium (Difco, USA) to have cell body concentration of 5×10^5 cells/100 μl, and then inoculated to a microtiter plate (NUNC, USA). Thereafter, each of CSP-4 peptide synthesized in Example 1 above and the mother peptide was diluted, 1/2 times for each, at pH of 5.5 or 7.4 in a 96-well plate. After adding the cells to the plate, the cells were cultured for 12 hours at 37° C. Then, the absorbance was measured at a wavelength of 620 nm by using a microtiter plate reader (Merck Elisa reader, Germany) to determine the MIC value of each bacterial strain.

[2] = system: Staphylococcus aureus, ATCC 25923; assay: as above; type: cell-based; conditions: S. aureus; 12 hours at 37° C.
Excerpt: as §1, §2

[3] = system: Bacillus subtilis, KCTC 1918; assay: as above; type: cell-based; conditions: B. subtilis; 12 hours at 37° C.
Excerpt: as §1, §2

[4] = system: Pseudomonas aeruginosa, ATCC 15692; assay: as above; type: cell-based; conditions: P. aeruginosa; 12 hours at 37° C.
Excerpt: as §1, §2

[5] = system: Salmonella typhimurium, KTCC 1926; assay: as above; type: cell-based; conditions: S. typhimurium; 12 hours at 37° C.
Excerpt: as §1, §2

[6] = system: Proteus vulgaris, KCTC 2433; assay: as above; type: cell-based; conditions: P. vulgaris; 12 hours at 37° C.
Excerpt: as §1, §2

[7] = system: Staphylococcus epidermidis, KCTC 3096; assay: as above; type: cell-based; conditions: S. epidermidis; 12 hours at 37° C.
Excerpt: as §1, §2

[8] = system: Listeria monocytogenes, ATCC 19115; assay: as above; type: cell-based; conditions: L. monocytogenes; 12 hours at 37° C.
Excerpt: as §1, §2

human erythrocyte = assay: Erythrocyte hemolytic activity; type: cell-based; conditions: for Erythrocyte disrupting ability %: 1 hour at 37° C., Triton X-100 = 100%
Procedure: To compare the cytotoxicity among the peptides that are produced by the method of Example 1, erythrocyte hemolytic activity of the synthesized peptide was measured.
Specifically, human erythrocyte was diluted in physiological saline (PBS, pH 7.0) to have concentration of 8%, and clavaspirin, CSP-4, and melittin peptide were serially diluted (i.e., dilution to 1/2 concentration from higher concentration for each dilution) followed by reaction for 1 hour at 37° C. After that, the amount of hemoglobin contained in a supernatant collected by centrifuge at 1,000×g was determined by measuring the absorbance at a wavelength of 414 nm. As a control group to be used as a reference for cell disruption level, the supernatant collected by a treatment with 1% Triton X-100 (Sigma, USA) and a reaction for 1 hour at 37° C. was used for absorbance measurement. By setting the erythrocyte hemolytic activity of Triton X-100 at 100%, the hemolytic activity of the above peptides was calculated using the following mathematical equation 1.
Erythrocyte disrupting ability (hemolysis) (%)=(Absorbance A−Absorbance B)/(Absorbance C−Absorbance B)×100 [Mathematical equation 1]
(in the above equation, Absorbance A indicates the absorbance of a reaction solution treated with each peptide, in which the absorbance is measured at a wavelength of 414 nm; Absorbance B indicates the absorbance of a reaction solution treated with PBS, in which the absorbance is measured at a wavelength of 414 nm; and Absorbance C indicates the absorbance of a reaction solution treated with 1% Triton X-100, in which the absorbance is measured at a wavelength of 414 nm).

S. aureus MRSA 5159 = conditions: 24 hours at 37° C.
S. aureus MRSA 4761 = conditions: 24 hours at 37° C.
S. aureus MRSA 1870 = conditions: 24 hours at 37° C.
S. aureus MRSA 3126 = conditions: 24 hours at 37° C.
S. aureus MRSA 5157 = conditions: 24 hours at 37° C.
S. aureus MRSA 3-359 = conditions: 24 hours at 37° C.
S. aureus = conditions: 24 hours at 37° C.
S. aureus MRSA 3518 = conditions: 24 hours at 37° C.

Substance | MIC (S. aureus MRSA 3511) | MIC (S. aureus MRSA 1630) | MIC (S. aureus MRSA 2-122) | MIC (S. aureus MRSA 0027) | Growth minimum inhibitory concentration [1] | Growth minimum inhibitory concentration [2] | Growth minimum inhibitory concentration [3] | Growth minimum inhibitory concentration [4] | Growth minimum inhibitory concentration [5] | Growth minimum inhibitory concentration [6] | Growth minimum inhibitory concentration [7] | Growth minimum inhibitory concentration [8] | Erythrocyte disrupting ability % (human erythrocyte; peptide 25 μM) | Erythrocyte disrupting ability % (human erythrocyte; peptide 50 μM) | Erythrocyte disrupting ability % (human erythrocyte; peptide 100 μM) | Erythrocyte disrupting ability % (human erythrocyte; peptide 200 μM) | Erythrocyte disrupting ability % (human erythrocyte; peptide 400 μM) | MIC (S. aureus MRSA 5159) | MIC (S. aureus MRSA 4761) | MIC (S. aureus MRSA 1870) | further results
FLRFIGSVIHGIGHLVHHIGVAL-NH2 [Clavaspirin] | 8 µM | 8 µM | 8 µM | 16 µM | 2 µM | 16 µM | 16 µM | 32 µM | 32 µM | 8 µM | 4 µM | 16 µM | 100% | 100% | 100% | 100% | 100% | 32 µM | 32 µM | 8 µM | MIC (S. aureus MRSA 3126): 16 µM; MIC (S. aureus MRSA 5157): 8 µM; MIC (S. aureus MRSA 3-359): 16 µM; MIC (S. aureus): 16 µM; MIC (S. aureus MRSA 3518): 8 µM
FLRFIGSVKHGKGHLVHHIGVAL-NH2 [CSP-4] | 8 µM | 8 µM | 8 µM | 8 µM | 2 µM | 8 µM | 4 µM | 32 µM | 64 µM | 4 µM | 4 µM | 4 µM | 0% | 0% | 0% | 1% | 10% | 8 µM | 8 µM | 8 µM | hemolysis (FIG. 1) (human erythrocyte; at 500 μg/ml): less than 1%; hemolytic activity (human erythrocyte; concentration of 200 μM or less): almost no hemolytic activity; MIC (S. aureus MRSA 3126): 8 µM; MIC (S. aureus MRSA 5157): 8 µM; MIC (S. aureus MRSA 3-359): 8 µM; MIC (S. aureus): 8 µM; MIC (S. aureus MRSA 3518): 8 µM
